Among the data in ChEMBL document CHEMBL3585254, “Synthesis and structural characterization of natural benzofuranoids” (J Nat Prod, 2015) are IC50 values, retold here.

The subject of the assay is HL-60. Description: Growth inhibition of human HL60 cells. Type of assay: functional, cell-based.

For orientation: IC50 means the concentration that gives 50% inhibition. Higher therefore signals weaker potency. In turn, `CC(C)=C1Oc2c(ccc(CC(C)O)c2CO)C1=O` (stereo unspecified) [USTUSORANE A] displayed a half-inhibitory concentration (IC50) of 130 nM.
